According to patent US10781184B2, “Substituted benzazinones as antibacterial compounds” (GlaxoSmithKline Intellectual Property Development Limited, priority 2015, dated 2020):
≈ marks a conversion by molar mass, not a printed value.

Key:
Test in all cases: Minimum Inhibitory Concentration Assay (broth microdilution, CLSI)
Format in all cases: cell-based
K. pneumoniae 1161486 = conditions: Klebsiella pneumoniae; strain 1161486, broth microdilution; read-out: K. pneumoniae 1161486 MIC
Procedure: (§1) Methods for dilution Antimicrobial Susceptibility TestS for Bacteria that Grow Aerobically; Approved Standard-Ninth Edition; M7-A9, Vol. 32 No. 2, Clinical and Laboratory Standards Institute, Wayne, Pa.; January 2012.
(§2) Performance Standards for Antimicrobial Susceptibility Testing; Twenty-Second Informational Supplement; M100-S22 Vol. 32 No. 3; Clinical and Laboratory Standards Institute, Wayne, Pa., January 2012.
(§3) Broth microdilution was performed in accordance with the CLSI recommended procedures for aerobic bacteria [CLSI, 2012].
(§4) Comparator compound stock solutions were prepared as recommended by CLSI [CLSI, 2012]. The stock solutions of novel GSK compounds were prepared at 512 mcg/mL by dissolving the compounds in dimethyl sulfoxide (DMSO) and diluting 1:10 with sterile water. The 512 mcg/mL stock was further serially diluted in the recommended broth media for the organisms being tested. Final DMSO concentration in test wells was less than 1%.
(§5) Microtitre plates were prepared using the Microlab STAR™ (Hamilton Co., Reno, Nev.) to add media (50 μL) and the Microlab AT Plus system (Hamilton Co., Reno, Nev.) to serially dilute the compounds (final concentration range 0.125 to 128 mcg/mL) and to add inoculum. A positive growth control well containing medium and the test isolate was included on each microtitre plate. Ten microliters of the test medium from the positive growth control well was plated to determine the purity of each test isolate. A microtitre mirror reader (Cooke Instruments, Ltd., England) was used to assist in determining the microdilution MIC endpoints. The MIC was determined as the lowest concentration of compound that inhibited visible growth of the organism.

P. aeruginosa PA01 = conditions: Pseudomonas aeruginosa; strain PA01, broth microdilution; read-out: P. aeruginosa PA01 MIC
Procedure: as §1, §2, §3, §4, §5

E. coli 7623 = conditions: Escherichia coli; strain 7623, broth microdilution; read-out: E. coli 7623 MIC
Procedure: as §1, §2, §3, §4, §5

Compound	MIC (K. pneumoniae 1161486)	MIC (P. aeruginosa PA01)	MIC (E. coli 7623)
CN(C)N(C)Cc1ccc(-c2ccc3c(=O)n(CC[C@](C)(C(=O)NO)S(C)(=O)=O)ccc3c2)cc1 [Example 77, (2R)—N-hydroxy-2-methanesulfonyl-2-methyl-4-(1-oxo-6-{4-[(1,2,2-trimethylhydrazin-1-yl)methyl]phenyl}-1,2-dihydroisoquinolin-2-yl)butanamide]	0.25 µg/mL (≈ 0.499 µM)	2 µg/mL (≈ 4 µM)	0.125 µg/mL (≈ 0.25 µM)
C[C@@](CCn1cnc2cc(-c3ccc(CCO)cc3)ccc2c1=O)(C(=O)NO)S(C)(=O)=O [Example 44, (2R)—N-hydroxy-4-{7-[4-(2-hydroxyethyl)phenyl]-4-oxo-3,4-dihydroquinazolin-3-yl}-2-methanesulfonyl-2-methylbutanamide]	1 µg/mL (≈ 2.18 µM)	1 µg/mL (≈ 2.18 µM)	0.125 µg/mL (≈ 0.272 µM)
CN(Cc1ccc(-c2cc3ncn(CC[C@](C)(C(=O)NO)S(C)(=O)=O)c(=O)c3cc2F)cc1)C1CC1 [Example 22, (2R)-4-[7-(4-{[cyclopropyl(methyl)amino]methyl}phenyl)-6-fluoro-4-oxo-3,4-dihydroquinazolin-3-yl]-N-hydroxy-2-methanesulfonyl-2-methylbutanamide]	0.25 µg/mL (≈ 0.484 µM)	8 µg/mL (≈ 15.5 µM)	< 0.03 µg/mL
C[C@@](CCn1cnc2cc(-c3ccc(CCO)cc3)c(F)cc2c1=O)(C(=O)NO)S(C)(=O)=O [Example 28, (2R)-4-(6-fluoro-7-[4-(2-hydroxyethyl)phenyl]-4-oxo-3,4-dihydroquinazolin-3-yl)-N-hydroxy-2-methanesulfonyl-2-methylbutanamide]	0.125 µg/mL (≈ 0.262 µM)	0.5 µg/mL (≈ 1.05 µM)	< 0.03 µg/mL
C[C@@](CCn1cnc2cc(-c3ccc(OC(F)F)cc3)ccc2c1=O)(C(=O)NO)S(C)(=O)=O [Example 5, (R)-4-(7-(4-(difluoromethoxy)phenyl)-4-oxoquinazolin-3(4H)-yl)-N-hydroxy-2-methyl-2-(methylsulfonyl)butanamide]	0.06 µg/mL (≈ 0.125 µM)	2 µg/mL (≈ 4.15 µM)	≤ 0.03 µg/mL
C[C@@](CCn1cnc2cc(-c3ccc(CN4CCOCC4)cc3)ccc2c1=O)(C(=O)NO)S(C)(=O)=O [Example 35, (2R)—N-hydroxy-2-methanesulfonyl-2-methyl-4-(7-{4-[(morpholin-4-yl)methyl]phenyl}-4-oxo-3,4-dihydroquinazolin-3-yl)butanamide]	0.5 µg/mL (≈ 0.972 µM)	1 µg/mL (≈ 1.94 µM)	0.125 µg/mL (≈ 0.243 µM)
COCCNCc1ccc(-c2ccc3c(=O)n(CC[C@](C)(C(=O)NO)S(C)(=O)=O)ccc3c2)c(F)c1F [Example 71, (R)-4-(6-(2,3-difluoro-4-(((2-methoxyethyl)amino)methyl)phenyl)-1-oxoisoquinolin-2(1H)-yl)-N-hydroxy-2-methyl-2-(methylsulfonyl)butanamide]	0.5 µg/mL (≈ 0.93 µM)	0.5 µg/mL (≈ 0.93 µM)	0.063 µg/mL (≈ 0.117 µM)
Cc1ccc(-c2ccc3c(=O)n(CC[C@](C)(C(=O)NO)S(C)(=O)=O)cnc3c2)cc1 [Example 2, (R)—N-hydroxy-2-methyl-2-(methylsulfonyl)-4-(4-oxo-7-(p-tolyl)quinazolin-3(4H)-yl)butanamide]	0.125 µg/mL (≈ 0.291 µM)	0.5 µg/mL (≈ 1.16 µM)	0.06 µg/mL (≈ 0.14 µM)
C[C@@](CCn1ccc2cc(-c3ccc4c(c3)COC4)ccc2c1=O)(C(=O)NO)S(C)(=O)=O [Example 57, (2R)-4-[6-(1,3-dihydro-2-benzofuran-5-yl)-1-oxo-1,2-dihydroisoquinolin-2-yl]-N-hydroxy-2-methanesulfonyl-2-methylbutanamide]	0.25 µg/mL (≈ 0.548 µM)	2 µg/mL (≈ 4.38 µM)	0.063 µg/mL (≈ 0.138 µM)
COCCNCc1ccc(-c2ccc3c(=O)n(CC[C@](C)(C(=O)NO)S(C)(=O)=O)ccc3c2)c(F)c1 [Example 67, (2R)-4-[6-(2-fluoro-4-{[(2-methoxyethyl)amino]methyl}phenyl)-1-oxo-1,2-dihydroisoquinolin-2-yl]-N-hydroxy-2-methanesulfonyl-2-methylbutanamide]	1 µg/mL (≈ 1.92 µM)	1 µg/mL (≈ 1.92 µM)	0.125 µg/mL (≈ 0.241 µM)
